The target of one assay is T1, Mcl-1/Bim interaction, recombinant human Mcl-1 (171-327) (Homo sapiens, UniProt Q07820).
T1 construct: made in house
T1 sequence (Q07820 171-327): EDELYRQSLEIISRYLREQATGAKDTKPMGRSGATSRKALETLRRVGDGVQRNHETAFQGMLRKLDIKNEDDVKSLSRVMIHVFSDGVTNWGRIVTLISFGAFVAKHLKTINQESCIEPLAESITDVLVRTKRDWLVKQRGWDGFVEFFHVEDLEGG
Nature of the assay: Cell free Mcl-1: Bim Affinity Assay (Mcl-1 HTRF). The settings on record: TR-FRET, 0.1 nM Mcl-1 (171-327), 0.05 nM biotin-Bim (51-76). Type of assay: binding. The method, boiled down: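 TR-FRET competition assay with biotinylated human Bim peptide (residues 51-76); reaction plates incubated overnight before reading. IC50 values came from duplicate data fitted to a four-parameter sigmoidal competition curve.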
In general terms: TR-FRET usually uses a lanthanide donor and a delayed reading to cut background.
As for `CC[C@@H]1CCCC[C@@H](NC(C)=O)[C@@H]2CC[C@H]2CN2C[C@@]3(CCCc4cc(Cl)ccc43)COc3ccc(cc32)C(=O)NS1(=O)=O` [Example 1080, N-((1S,3′R,6′R,7′R,12′R)-6-chloro-12′-ethyl-13′,13′-dioxido-15′-oxo-3,4-dihydro-2H-spiro[naphthalene-1,22′-[20]oxa[13]thia[1,14]diazatetracyclo[14.7.2.0^3,6.0^19,24]pentacosa [16,18,24]trien]-7′-yl)acetamide], the concentration for half-maximal inhibition (IC50) (commonly the concentration that inhibits the measured activity by half) is 1.14 nM. Regarding `O=C1NS(=O)(=O)[C@H](CO)CC/C=C/[C@H](O)[C@@H]2CC[C@H]2CN2C[C@@]3(CCCc4cc(Cl)ccc43)COc3ccc1cc32` (single isomer, unassigned) [Example 445], the IC50 turned out to be 0.461 nM.

Regarding `CO[C@@H]1CCCCCCS(=O)(=O)NC(=O)c2ccc3c(c2)N(C[C@@H]2CC[C@H]21)C[C@@]1(CCCc2cc(Cl)ccc21)CO3` [Example 230, (1S,3′R,6′R,7′R)-6-chloro-7′-methoxy-3,4-dihydro-2H,16′H-spiro[naphthalene-1,23′-[21]oxa[14]thia[1,15]diazatetracyclo[15.7.2.0^3,6.0^20,25]hexacosa[17,19,25]trien]-16′-one 14′,14′-dioxide], the IC50 turned out to be 32.3 nM. Regarding `O=C1NS(=O)(=O)[C@@H](CCOC(F)(F)F)CC/C=C/[C@H](O)[C@@H]2CC[C@H]2CN2C[C@@]3(CCCc4cc(Cl)ccc43)COc3ccc1cc32` (single isomer, unassigned) [Example 1013], the IC50 is 18.1 nM. For the compound `O=C1NS(=O)(=O)[C@@H]2CC[C@H]2CCC[C@H](O)[C@@H]2CC[C@H]2CN2C[C@@]3(CCCc4cc(Cl)ccc43)COc3ccc1cc32` [Example 91, (1S,3′R,6′R,7′S,11′R,14′R)-6-chloro-7′-hydroxy-3,4-dihydro-2H,17′H-spiro[naphthalene-1,24′-[22]oxa[15]thia[1,16]diazapentacyclo[16.7.2.0^3,6.0^11,14.0^21,26]heptacosa[18,20,26]trien]-17′-one 15′,15′-dioxide], the half-maximal inhibitory concentration (IC50) was 3.06 nM. As for `CC[C@@H]1CC/C=C/[C@@H](NC(C)=O)[C@@H]2CC[C@H]2CN2C[C@@]3(CCCc4cc(Cl)ccc43)COc3ccc(cc32)C(=O)NS1(=O)=O` (single isomer, unassigned) [Example 1078], the IC50 is 0.557 nM.

The same assay, now with this note: cell free Mcl-1:Bim TR-FRET, recombinant human Mcl-1 (171-327).
For `O=C1NS(=O)(=O)CCOC/C=C/C2CCC2CN2C[C@@]3(CCCc4cc(Cl)ccc43)COc3ccc1cc32` (stereo in doubt) [Example 826, (3S,6R,7E,22S)-6′-chloro-3′,4′-dihydro-2′H,15H-spiro[10,20-dioxa-13-thia-1,14-diazatetracyclo[14.7.2.0^3,6.0^19,24]pentacosa-7,16,18,24-tetraene-22,1′-naphthalen]-15-one 13,13-dioxide], the IC50 is 10.5 nM. For `CC[C@@H]1CCCCC[C@H](O)[C@@H]2CC[C@H]2CN2C[C@@]3(CCCc4cc(Cl)ccc43)COc3ccc(cc32)C(=O)NS1(=O)=O` [Example 554, (1S,3′R,6′R,7′S,13′R)-6-chloro-13′-ethyl-7′-hydroxy-3,4-dihydro-2H,16′H-spiro[naphthalene-1,23′-[21]oxa[14]thia[1,15]diazatetracyclo[15.7.2.0^3,6.0^20,25]hexacosa[17,19,25]trien]-16′-one 14′,14′-dioxide], the IC50 stood at 1.83 nM.

On to `O=C1NS(=O)(=O)CC=CCC(O)CC2CCC2CN2CC3(CCCc4cc(Cl)ccc43)COc3ccc1cc32` (single isomer, unassigned) [Example 913], for which the IC50 worked out at 6.1 nM. With `O=C(C[C@@H]1CC/C=C/[C@H](O)[C@@H]2CC[C@H]2CN2C[C@@]3(CCCc4cc(Cl)ccc43)COc3ccc(cc32)C(=O)NS1(=O)=O)Nc1ccccc1` (single isomer, unassigned) [Example 630], the IC50 came out at 1.61 nM. In the case of `O=C1NS(=O)(=O)C/C=C\C[C@@H](O)C[C@@H]2CC[C@H]2CN2C[C@@]3(CCCc4cc(Cl)ccc43)COc3ccc1cc32` (single isomer, unassigned) [Example 914], the IC50 turned out to be 1.87 nM. For the compound `CN(C(=O)C1CC1)[C@@H]1CCCCCS(=O)(=O)NC(=O)c2ccc3c(c2)N(C[C@@H]2CC[C@H]21)C[C@@]1(CCCc2cc(Cl)ccc21)CO3` (single isomer, unassigned) [Example 943], the IC50 stood at 16.2 nM. As to `O=C1NS(=O)(=O)CCC[C@H](O)CC[C@@H]2CC[C@H]2CN2C[C@@]3(CCCc4cc(Cl)ccc43)COc3ccc1cc32` (single isomer, unassigned) [Example 502, (1S,3′R,6′S,9′R)-6-chloro-9′-hydroxy-3,4-dihydro-2H,15′H-spiro[naphthalene-1,22′-[20]oxa[13]thia[1,14]diazatetracyclo[14.7.2.0^3,6.0^19,24]pentacosa [16,18,24]trien]-15′-one 13′,13′-dioxide or (1S,3′R,6′S,9′S)-6-chloro-9′-hydroxy-3,4-dihydro-2H,15′H-spiro[naphthalene-1,22′-[20]oxa[13]thia[1,14]diazatetracyclo[14.7.2.0^3,6.0^19,24]pentacosa [16,18,24]trien]-15′-one 13′,13′-dioxide], the IC50 stood at 2.31 nM. With `O=C1NS(=O)(=O)CCCC[C@@H]2CC[C@H]2CN2C[C@@]3(CCCc4cc(Cl)ccc43)COc3ccc1cc32` [Example 830, (1S,3′S,6′S)-6-chloro-3,4-dihydro-2H,13′H-spiro[naphthalene-1,20′-[18]oxa[11]thia[1,12]diazatetracyclo[14.7.2.0^3,6.0^19,24]tricosa[14, 16,22]trien]-13′-one 11′,11′-dioxide], the IC50 was determined as 21.1 nM. In the case of `C[C@H]1C/C=C/[C@H](O)[C@@H]2CC[C@H]2CN2C[C@@]3(CCCc4cc(Cl)ccc43)COc3ccc(cc32)C(=O)NS1(=O)=O` (single isomer, unassigned) [Example 759], the IC50 was 3.98 nM.

For the compound `O=C1NS(=O)(=O)CC/C=C/CC[C@@H]2CC[C@H]2CN2C[C@@]3(CCCc4cc(Cl)ccc43)COc3ccc1cc32` [Example 496, (1S,3′R,6′R,9′E)-6-chloro-3,4-dihydro-2H,15′H-spiro[naphthalene-1,22′-[20]oxa[13]thia[1,14]diazatetracyclo[14.7.2.0^3,6.0^19,24]pentacosa [10,16,18,24]tetraen]-15′-one 13′,13′-dioxide], the IC50 is 6.33 nM. As to `O=C1NS(=O)(=O)CC/C=C/[C@@H]2CC[C@H]2CN2C[C@@]3(CCCc4cc(Cl)ccc43)COc3ccc1cc32` [Example 825, (1S,3′R,6′S, 7′E)-6-chloro-3,4-dihydro-2H,13′H-spiro[naphthalene-1,20′-[18]oxa[11]thia[1,12]diazatetracyclo[12.7.2.0^3,6.0^17,22]tricosa[7,14,16,22]tetraen]-13′-one 11′,11′-dioxide], the IC50 came to 26.4 nM. Consider `C[C@@H]1CCCCCS(=O)(=O)NC(=O)c2ccc3c(c2)N(C[C@@H]2CC[C@H]21)C[C@@]1(CCCc2cc(Cl)ccc21)CO3` (single isomer, unassigned) [Example 907, (1S,3′R,6′S, 7′R)-6-chloro-7′-methyl-3,4-dihydro-2H,15′H-spiro[naphthalene-1,22′-[20]oxa[13]thia[1,14]diazatetracyclo[14.7.2.0^3,6.0^19,24]pentacosa [16,18,24]trien]-15′-one 13′,13′-dioxide or (1S,3′R,6′S, 7′S)-6-chloro-7′-methyl-3,4-dihydro-2H,15′H-spiro[naphthalene-1,22′-[20]oxa[13]thia[1,14]diazatetracyclo[14.7.2.0^3,6.0^19,24]pentacosa [16,18,24]trien]-15′-one 13′,13′-dioxide], for which the IC50 is 18.9 nM.
